Test results published in patent US9556155B2, “Methods of treating fatty liver disease” (Genzyme Corporation, priority 2006, dated 2017).

Legend:
Type in all cases: in vivo
ob/ob mice = assay: Liver weight and body weight in ob/ob mice
Method: FIG. 6 is a graph comparing the liver weight to body weight ratios of ob/ob mice treated with water, ob/ob mice treated with Formula X, and lean mice treated with water after 6 weeks of treatment.
Male ob/ob mice were obtained from the Jackson Laboratories (Bar Harbor, Me.). These mice, being deficient in leptin, are hyperphagic and rapidly become obese. Severe hepatic steatosis is a characteristic of this model. Beginning at 7 weeks of age the mice were treated with Formula X by daily oral gavage (dosed 2× per day at 60 mg/kg/dose or 120 mg/kg/day). […] After 6 weeks of treatment, the animals were sacrificed and the livers dissected and weighed. In the placebo treated ob/ob mice, the liver weight to body weight ratio was higher than in lean animals (FIG. 6). […] N=6-8 mice per group.

[1] = system: hepatic genes involved in lipogenesis, gluconeogenesis, inflammation, and fibrosis; assay: Quantitative RT-PCR of hepatic genes in ob/ob mice; details: 120 mg/kg/day oral gavage, 6 weeks, vs placebo
Source text: FIGS. 7A-G are a series of graphs comparing the expression of hepatic genes involved in lipogenesis, gluconeogenesis, inflammation, and fibrosis in ob/ob mice treated with water, ob/ob mice treated with Formula X, and lean mice treated with water after 6 weeks of treatment. In FIG. 7A, lower levels of sterol regulatory element binding protein 1c (SREBP-1c) RNA are observed in the drug-treated versus placebo-treated control animals. In FIG. 7B, lower levels of acid citrate lyase 1 (ACL1) are observed in the drug-treated versus placebo-treated control animals. In FIG. 7C, lower levels of acetyl coenzyme A carboxylase 1 (ACC1) are observed in the drug-treated versus placebo-treated control animals. In FIG. 7D, lower levels of fatty acid synthase (FAS) are observed in the drug-treated versus placebo-treated control animals. In FIG. 7E, lower levels of tumor necrosis factor 1 alpha (TNF-α) are observed in the drug-treated versus placebo-treated control animals. In FIG. 7F, lower levels of glucose 6-phosphatase (G6P) are observed in the drug-treated versus placebo-treated control animals. In FIG. 7G, lower levels of procollagen type 1 (collagen) are observed in the drug-treated versus placebo-treated control animals. Thus, treatment with Formula X reduced the expression of genes involved in lipogenesis (SREBP-1c, ACL1, ACC1, FAS), gluconeogenesis (G6P), inflammation (TNF-α), and fibrosis.
The ob/ob mice, beginning at 7 weeks of age, were treated with Formula X by daily oral gavage (dosed 2× per day at 60 mg/kg/dose, or 120 mg/kg/day) for 6 weeks. The mice were sacrificed and total RNA was purified from the livers for quantitative RT-PCR (FIG. 7) of sterol regulatory element binding protein 1c (SREBP-1c), acid citrate lyase 1 (ACL1), acetyl coenzyme A carboxylase 1 (ACC1), fatty acid synthase (FAS), tumor necrosis factor 1 alpha (TNF-α), glucose 6-phosphatase (G6P), and procollagen type 1 (collagen).

[2] = system: diet-induced obese (DIO) C57BL/6 mice; assay: Hepatic steatosis in DIO mice, hematoxylin and eosin stained liver sections; details: 125 mg/kg daily oral gavage, 10 weeks, vs water control
Method: FIGS. 2A-2C are a series of photographs comparing hematoxylin and eosin stained liver sections of (A) diet-induced obese (DIO) C57BL/6 mice treated with water (control), (B) DIO mice treated with D-threo-1-(3′,4′-ethylenedioxy)phenyl-2-octanoylamino-3-pyrrolidino-1-propanol (Formula XI), and (C) lean mice treated with water (control). Mice were treated by daily oral gavage for 10 weeks and then sacrificed. In FIG. 1A, large vacuoles are visible throughout the parenchyma of the livers from the water-treated control mice. […] In FIG. 1C, the livers of normal, lean mice are devoid of any lipid-filled vacuoles.
Diet-induced obese (DIO) mice were first generated by placing C57BL/6 mice on a high-fat (45% of kcal) diet (D12451, Research Diets, Inc., New Brunswick, N.J.) for 8 weeks. Obese mice that had elevated glucose and insulin levels were selected and then treated with Formula XI by daily oral gavage (125 mg/kg) or with water as a control. After 10 weeks of treatment, the livers were harvested, sectioned, and stained with hematoxylin and eosin. Large vacuoles were visible throughout the parenchyma of the livers from the water control mice (FIGS. 2A-2C). These vacuoles contain neutral lipid by Oil Red O staining of the liver sections.

DIO mice [3] = assay: Liver triglyceride levels in DIO mice (hepatic lipid extracts); details: 75 or 125 mg/kg daily oral gavage, 16 weeks, vs water control
Method: FIG. 3 is a graph comparing the mean levels of liver triglycerides in DIO mice treated with water, DIO mice treated with 75 mg/kg Formula XI, DIO mice treated with 125 mg/kg Formula XI, and lean mice treated with water. Mice were treated by daily oral gavage for 16 weeks and then euthanized. The livers were harvested and homogenized. Triglyceride levels were measured in hepatic lipid extracts.
DIO mice were generated as described in Example 1 and then treated with Formula XI by daily oral gavage at a dose of 75 or 125 mg/kg. Mice gavaged with water served as the control. After 16 weeks of treatment the livers were harvested and homogenized. The lipids were extracted with methanol:chloroform (4.3:3 v/v) and CaCI2. The extracted lipids were dried and dissolved in dimethylsulfoxide (DMSO). Triglycerides were measured using the Serum Triglyceride Determination kit (Sigma-Aldrich, St. Louis, Mo.) according to the protocol supplied by the manufacturer.

DIO mice [4] = assay: Liver weight and body weight in DIO mice
Method: FIG. 4 is a graph comparing the liver weight to body weight ratios of DIO mice treated with water, DIO mice treated with Formula XI, and lean mice treated with water after 9 and 17 weeks of treatment.
DIO mice were generated as described in Example 1. Mice were maintained on the high-fat diet for an additional 23 weeks (total time on diet 31 weeks). The mice were then treated with Formula XI by daily oral gavage (125 mg/kg/day). […] After 9 and 17 weeks of treatment, groups of animals were sacrificed and the livers dissected and weighed. In the DIO mice, the liver weight to body weight ratio was higher than in lean animals.

DIO mice [5] = assay: Markers of liver toxicity in blood of DIO mice; details: 125 mg/kg/day oral gavage, 9 weeks, vs placebo
Source text: FIGS. 5A-5D are a series of graphs comparing the levels of liver enzymes in DIO mice treated with water and DIO mice treated with Formula XI for 9 weeks. In FIG. 1A, lower levels of alanine aminotransferase (ALT) are observed in the drug-treated versus placebo-treated control animals. In FIG. 1B, lower levels of aspartate aminotransferase (AST) are observed in the drug-treated versus placebo-treated control animals. In FIG. 1C, lower levels of alkaline phosphatase are observed in the drug-treated versus placebo-treated control animals. In FIG. 1D, lower levels of γ-glutamyltransferase (GGT) are observed in the drug-treated versus placebo-treated control animals.
DIO mice were generated as described in Example 1. Mice were maintained on the high-fat diet for an additional 23 weeks (total time on diet 31 weeks). The mice were then treated with Formula XI by daily oral gavage (125 mg/kg/day). Blood was collected after 9 weeks of treatment and markers of liver toxicity were analyzed (IDEXX Laboratories, West Sacramento, Calif.). Lower levels of alanine aminotransferase (ALT), aspartate aminotransferase (AST), alkaline phosphatase, and gamma-glutamyltransferase (GGT) were found in the drug-treated versus placebo-treated control animals (FIGS. 5A-5D).

| SMILES | liver weights (ob/ob mice; 120 mg/kg/day oral gavage, 6 weeks) | liver weight to body weight ratio (ob/ob mice; 6 weeks of treatment, vs water) | acetyl coenzyme A carboxylase 1 (ACC1) expression in liver [1] | acid citrate lyase 1 (ACL1) expression in liver [1] | fatty acid synthase (FAS) expression in liver [1] | glucose 6-phosphatase (G6P) expression in liver [1] | procollagen type 1 (collagen) expression in liver [1] | sterol regulatory element binding protein 1c (SREBP-1c) RNA level in liver [1] | tumor necrosis factor 1 alpha (TNF-α) expression in liver [1] | size of liver vacuoles [2] | vacuoles visible in the livers (neutral lipid) [2] | total triglyceride levels in the liver (DIO mice [3]) | liver weights (DIO mice [4]; 125 mg/kg/day oral gavage, 9 and 17 weeks) | liver/body weight ratio (DIO mice [4]; 125 mg/kg/day oral gavage, after 17 weeks, vs lean group) | liver weight to body weight ratio (DIO mice [4]; 9 and 17 weeks of treatment, vs water) | alanine aminotransferase (ALT) level (DIO mice [5]) | alkaline phosphatase level (DIO mice [5]) | aspartate aminotransferase (AST) level (DIO mice [5]) | gamma-glutamyltransferase (GGT) level (DIO mice [5]) |
| --- | --- | --- | --- | --- | --- | --- | --- | --- | --- | --- | --- | --- | --- | --- | --- | --- | --- | --- | --- |
| CCCCCCCCC(=O)NC(CN1CCCC1)C(O)c1ccc2c(c1)OCCO2 (stereo not shown) [Formula X, 1-(1,4-benzodioxan-6-yl)-2-nonanoylamino-3-pyrrolidino-1-propanol] | significantly reduced | reduction | lower levels | lower levels | lower levels | lower levels | lower levels | lower levels | lower levels | – | – | – | – | – | – | – | – | – | – |
| CCCCCCCC(=O)NC(CN1CCCC1)C(O)c1ccc2c(c1)OCCO2 (stereo not shown) [Formula XI, 1-(1,4-benzodioxan-6-yl)-2-octanoylamino-3-pyrrolidino-1-propanol] | – | – | – | – | – | – | – | – | – | appreciably smaller | significantly fewer vacuoles | dose-dependent reduction | significantly reduced | comparable to that of the lean group | reduction | Lower levels | Lower levels | Lower levels | Lower levels |
